Earlier results on one molecule are cited in US11946927B2, “Process and system for identifying individuals having a high risk of inflammatory bowel disease and a method of treatment” (MUSIDORA BIOTECHNOLOGY LLC, priority 2016, dated 2024).

This series concerns patients with active UC.

For the molecule `Nc1ccc(O)c(C(=O)O)c1` [mesalamine], the “efficacy of mesalamine in active UC” value (active UC, first-line conventional clinical treatment) is on record as 30-40%. Where the note is “mesalamine used to treat active UC, patients with moderate UC, compared to 80% treated with placebo”, the clinical treatment failures is listed as 60 % of patients.
